From article PMC4948833, “A Sensitive and Robust High-Throughput Screening Assay for Inhibitors of the Chikungunya Virus nsP1 Capping Enzyme” (PLoS ONE, 2016)

Experiments:
CHIKV nsP1 = test: HTS validation potency repeatability, EC50 of GTP analogs in two independent FP runs
[1] = test system: CHIKV nsP1 GTP binding site; test: FP competition assay, displacement of GTP-Bodipy by GTP and RNA cap analogs (apparent Ki / EC50); conditions: for affinity for nsP1 GTP binding site / ability to compete with GTP-Bodipy (in words): FP competition, compared with GTP; for Ki: read-out: Average Ki, apparent Ki, 500 nM nsP1, 10 nM GTP-Bodipy, 1 hour 25°C
[2] = test system: CHIKV nsP1 guanylation activity; test: Guanylation assay, covalent nsP1-GTP-680 formation, SDS-PAGE fluorescence; conditions: for Average POC: mean of replicates; for Average POC / Percent of Control: 100 μM analog, Fig 4 data; for Percent of Control: single replicates, scaled guanylation; for ability to inhibit nsP1 guanylation (in words): 100 μM of each GTP analog, Fig 4; for ability to inhibit nsP1 guanylation (in words) / effect on nsP1 guanylation activity (in words): 1 hour; for effect on nsP1 guanylation activity (in words): 100 μM GTP, 100 μM SAM or both, Fig 2; for % of control, mean of replicates: mean of n = 3, 100 uM, given as fraction, Fig 2 data

| SMILES | Geometric Mean Potency (CHIKV nsP1; first set of rows) | Geometric Mean Potency (CHIKV nsP1; second set of rows) | affinity for nsP1 GTP binding site / ability to compete with GTP-Bodipy (in words) [1] | Ki [1] [µM] | Average POC [2] | Percent of Control ([2]; 100 µM) | ability to inhibit nsP1 guanylation (in words) [2] | other results |
| --- | --- | --- | --- | --- | --- | --- | --- | --- |
| Nc1ncnc2c1ncn2[C@@H]1O[C@H](COP(=O)(O)OP(=O)(O)OP(=O)(O)O)[C@@H](O)[C@H]1O [ATP] | 4.371 | 4.429 | six fold affinity reduction | 3.34 | 73.0319 | 67.4851 |  | Percent of Control ([2]; listed as ATP2, 100 µM): 83.2927; Percent of Control ([2]; listed as ATP3, 100 µM): 68.3179 |
| Nc1ccn([C@@H]2O[C@H](COP(=O)(O)OP(=O)(O)OP(=O)(O)O)[C@@H](O)[C@H]2O)c(=O)n1 [CTP] | 4.146 | 4.036 | markedly decreased ability to outcompete GTP-Bodipy | 6.94 | 49.6579 | 48.7482 |  | Percent of Control ([2]; listed as CTP2, 100 µM): 53.2419; Percent of Control ([2]; listed as CTP3, 100 µM): 46.9836 |
| Nc1nc2c(ncn2[C@@H]2O[C@H](COP(=O)(O)OP(=O)(O)O)[C@@H](O)[C@H]2O)c(=O)[nH]1 [GDP] | 4.329 | 4.21 | slight decrease in affinity | 4.89 | 78.8606 | 63.0295 |  | Percent of Control ([2]; listed as GDP2, 100 µM): 85.6756; Percent of Control ([2]; listed as GDP3, 100 µM): 87.8767 |
| Nc1nc2c(ncn2[C@@H]2O[C@H](COP(=O)(O)O)[C@@H](O)[C@H]2O)c(=O)[nH]1 [GMP] | 3.81 | 3.81 | decrease of GMP affinity was quite large | 133 | 99.8208 | 96.3413 | least ability to inhibit guanylation | Percent of Control ([2]; listed as GMP2, 100 µM): 112.788; Percent of Control ([2]; listed as GMP3, 100 µM): 90.3332 |
| Nc1nc2c(ncn2[C@@H]2O[C@H](COP(=O)(O)OP(=O)(O)OP(=O)(O)O)[C@@H](O)[C@H]2O)c(=O)[nH]1 [GTP] | 5.173 | 5.17 |  | 0.546 | 44.8021 | 42.0576 | greatest ability to in inhibit nsP1 guanylation activity | EC50 ([1]; read-out: EC50 concentration of GTP, FP displacement of GTP-Bodipy, used for midpoint signal wells): 6.8 µM; effect on nsP1 guanylation activity (in words) [2]: significantly diminished guanylation activity; % of control, mean of replicates [2]: 0.417; Percent of Control ([2]; listed as GTP2, 100 µM): 51.0432; Percent of Control ([2]; listed as GTP3, 100 µM): 41.3055 |
| Nc1nc2c(ncn2[C@@H]2O[C@H](COP(=O)(O)OP(=O)(O)OP(=O)(O)OC[C@H]3O[C@@H](n4cnc5c(N)ncnc54)[C@H](O)[C@@H]3O)[C@@H](O)[C@H]2O)c(=O)[nH]1 [GpppA] | 4.749 | 4.683 | better competitor than me^7GpppA | 1.89 | 66.8805 | 57.9814 |  | Percent of Control ([2]; listed as GpppA2, 100 µM): 71.1847; Percent of Control ([2]; listed as GpppA3, 100 µM): 71.4754 |
| Nc1nc2c(ncn2[C@@H]2O[C@H](CO)[C@@H](O)[C@H]2O)c(=O)[nH]1 [Guanosine] |  |  | not able to calculate a Ki |  | 109.076 | 100.679 | least ability to inhibit guanylation | Percent of Control ([2]; listed as Guanosine2, 100 µM): 132.685; Percent of Control ([2]; listed as Guanosine3, 100 µM): 93.8632 |
| O=c1[nH]cnc2c1ncn2[C@@H]1O[C@H](COP(=O)(O)OP(=O)(O)OP(=O)(O)O)[C@@H](O)[C@H]1O [ITP] | 4.642 | 4.657 | moderate decrease in affinity | 1.91 | 74.6508 | 92.365 |  | Percent of Control ([2]; listed as ITP2, 100 µM): 66.4533; Percent of Control ([2]; listed as ITP3, 100 µM): 65.1342 |
| C[S+](CC[C@H](N)C(=O)[O-])C[C@H]1O[C@@H](n2cnc3c(N)ncnc32)[C@H](O)[C@@H]1O (some centres unmarked) [SAM, S-adenosyl methionine] |  |  |  |  |  |  |  | effect on nsP1 guanylation activity (in words) [2]: guanylation activity was maintained; % of control, mean of replicates [2]: 0.9908 |
| O=c1ccn([C@@H]2O[C@H](COP(=O)(O)OP(=O)(O)OP(=O)(O)O)[C@@H](O)[C@H]2O)c(=O)[nH]1 [UTP] | 4.3046 | 4.272 | markedly decreased ability to outcompete GTP-Bodipy | 4.46 | 59.4237 | 68.643 |  | Percent of Control ([2]; listed as UTP2, 100 µM): 52.4244; Percent of Control ([2]; listed as UTP3, 100 µM): 57.2037 |
| O=c1[nH]c(=O)c2ncn([C@@H]3O[C@H](COP(=O)(O)OP(=O)(O)OP(=O)(O)O)[C@@H](O)[C@H]3O)c2[nH]1 [XTP] | 5.251 | 5.346 | slightly higher affinity compared to GTP | 0.402 | 32.3662 | 34.0129 | greatest ability to in inhibit nsP1 guanylation activity | Percent of Control ([2]; listed as XTP2, 100 µM): 27.443; Percent of Control ([2]; listed as XTP3, 100 µM): 35.6426 |
| Nc1nc2c(ncn2[C@H]2C[C@H](O)[C@@H](COP(=O)(O)OP(=O)(O)OP(=O)(O)O)O2)c(=O)[nH]1 [dGTP] | 5.4125 | 5.208 | less affinity compared to the others | 4.21 | 25.7895 | 29.9486 | greatest ability to in inhibit nsP1 guanylation activity | Percent of Control ([2]; listed as dGTP2, 100 µM): 23.146; Percent of Control ([2]; listed as dGTP3, 100 µM): 24.2738 |
| Nc1nc2c(ncn2[C@H]2CC[C@@H](COP(=O)(O)OP(=O)(O)OP(=O)(O)O)O2)c(=O)[nH]1 [ddGTP] |  |  | binding slightly better than the others | 0.425 | 32.7576 | 32.7691 | greatest ability to in inhibit nsP1 guanylation activity | Percent of Control ([2]; listed as ddGTP2, 100 µM): 30.4919; Percent of Control ([2]; listed as ddGTP3, 100 µM): 35.0118 |
| Cn1c[n+]([C@@H]2O[C@H](COP(=O)(O)O)[C@@H](O)[C@H]2O)c2nc(N)[nH]c(=O)c21 [me^7-GMP] |  |  | very poor competitor | 21.9 | 102.357 |  | least ability to inhibit guanylation | Percent of Control ([2]; listed as m7-GMP2, 100 µM): 87.9178; Percent of Control ([2]; listed as m7-GMP3, 100 µM): 97.473; Percent of Control ([2]; listed as m7-GMP, 100 µM): 121.679 |
| Cn1c[n+]([C@@H]2O[C@H](COP(=O)([O-])OP(=O)(O)OP(=O)(O)O)[C@@H](O)[C@H]2O)c2nc(N)[nH]c(=O)c21 [me^7-GTP] |  |  | able to compete for the GTP binding site | 1.55 | 37.4013 |  |  | Percent of Control ([2]; listed as m7-GTP2, 100 µM): 37.3024; Percent of Control ([2]; listed as m7-GTP, 100 µM): 37.5003 |
